Assay results reported in ChEMBL document CHEMBL2163339, “Discovery of potent inhibitors of human and mouse fatty acid amide hydrolases” (J Med Chem, 2012).

These molecules were tested against T1, Fatty-acid amide hydrolase 1 (Mus musculus, UniProt O08914) (assay: Inhibition of mouse FAAH isolated from brain homogenate using [3H-ethanolamine]AEA as substrate incubated for 20 mins prior to substrate addition measured after 15 mins by beta counting analysis).
T1 sequence (O08914 whole entry): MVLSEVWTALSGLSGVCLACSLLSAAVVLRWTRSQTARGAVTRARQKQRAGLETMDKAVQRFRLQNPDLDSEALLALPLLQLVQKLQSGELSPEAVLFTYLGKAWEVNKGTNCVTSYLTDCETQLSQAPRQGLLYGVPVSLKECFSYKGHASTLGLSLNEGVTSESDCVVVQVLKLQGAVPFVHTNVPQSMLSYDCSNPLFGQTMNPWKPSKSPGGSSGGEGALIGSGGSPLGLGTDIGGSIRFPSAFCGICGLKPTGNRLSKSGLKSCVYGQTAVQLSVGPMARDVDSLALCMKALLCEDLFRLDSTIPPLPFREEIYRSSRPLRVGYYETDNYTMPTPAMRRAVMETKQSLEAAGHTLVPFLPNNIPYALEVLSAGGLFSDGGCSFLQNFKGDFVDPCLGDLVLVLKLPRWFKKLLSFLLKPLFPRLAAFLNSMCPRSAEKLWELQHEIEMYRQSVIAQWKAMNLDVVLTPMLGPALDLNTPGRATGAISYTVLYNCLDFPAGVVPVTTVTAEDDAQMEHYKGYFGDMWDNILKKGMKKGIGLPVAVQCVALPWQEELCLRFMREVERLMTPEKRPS

Row | SMILES | IC50 [nM] | Ki [nM]
1 | NC(=O)c1ccn(-c2cccc(OC(=O)NCCOCCOc3c(F)cc(F)cc3F)c2)c1 | 43 | 11
2 | COc1cccc(-c2c(C(=O)NCCCCCCc3ccccc3)cc(C)n2Cc2ccccc2)c1 | > 200 | 
3 | Cc1oc(-c2cccc(OC(=O)NCCCCCCc3ccccc3)c2)cc1C(N)=O | 18 | 4.8
4 | CCCCNC(=O)Oc1cccc(-n2ccc(C(N)=O)c2)c1 | 240 | 60
5 | Cc1cc(C(N)=O)c(-c2cccc(OC(=O)NC3CCCCC3)c2)s1 | > 200 | 
6 | Cc1cc(C(=O)NCCCCCCc2ccccc2)c(-c2cccc(OC(=O)NC3CCCCC3)c2)n1Cc1ccccc1 | > 200 | 
7 | C#CCCCCCCCCCOC(=O)c1ccn(-c2cccc(OC(=O)NC3CCCCC3)c2)c1 | > 10000 | 
8 | Cc1oc(-c2cccc(OC(=O)NC3CCCCC3)c2)cc1C(N)=O | > 200 | 
9 | CCCCNC(=O)Oc1cccc(-c2oc(C)cc2C(N)=O)c1 | 530 | 140
10 | NC(=O)c1ccn(-c2cccc(OC(=O)NCCOCCOc3ccccc3F)c2)c1 | 69 | 18
11 | C#CCCCCCCCCCOC(=O)c1ccn(-c2cccc(OC(=O)NCCCCCCc3ccccc3)c2)c1 | > 200 | 
12 | Cc1cc(C(N)=O)c(-c2cccc(OC(=O)NC3CCCCC3)c2)o1 | > 70 | 
13 | NC(=O)c1ccn(-c2cccc(OC(=O)NCCOCCOc3ccccc3)c2)c1 | 87 | 23
14 | O=C(NC1CCCCC1)Oc1cccc(-n2ccc(C(=O)OCCCCCCc3ccccc3)c2)c1 | > 50000 | 
